According to patent publication US20040191171A1, “Method of detecting skin stimulation effect” (priority 2001, published 2004):
Each block holds one compound with its values, some of them ahead of it.

Legend:
Format in all cases: cell-based
[1] = test system: P2X receptor; assay: Intracellular calcium ion concentration in cultured epidermal keratinocytes (Fluo3-AM fluorescence), P2X agonist/inhibitor; conditions: FIG. 2; for concentration of intracellular calcium ions in the keratinocytes: agonist solution (final concentration 10 μM) added to epidermal keratinocytes
Procedure: (a) Commercially available epidermal keratinocytes (product of Kurabo Industries Ltd.) were subjected to culture by means of a customary method by use of a KGM medium which had been prepared through the following procedure: MCDB153IK (product of Kyokuto Pharmaceutical Industrial Co., Ltd.) (10.93 g), N-2-hydroxyethylpiperazine-N′-2-ethanesulphonic acid (HEPES) (6.7 g), NaHCO3 (1.2 g), insulin (5 mg), hydrocortisone (0.5 mg), transferrin (10 mg), phosphorylethanolamine (14.1 mg), EGF (10 μg), penicillin (100 mg), and kanamycin (60 mg) were dissolved in purified water (1 L); the pH of the resultant solution was adjusted to 7.4 by use of NaOH; the resultant solution was subjected to filter sterilization; and bovine pituitary gland extract (product of Kyokuto Pharmaceutical Industrial Co., Ltd.) (55 mg) was added to the resultant solution immediately before use of the solution. On the day before measurement of calcium ions was carried out, the thus-cultured epidermal keratinocytes were inoculated into a 96-well plate (2×10^5 cells/well). On the following day, the aforementioned culture solution was removed from the well plate by use of a pipette such that the cells were not exfoliated from the wells. Subsequently, a balanced salt solution (BSS: an aqueous solution prepared by dissolving NaCl (150 mM), KCl (5 mM), CaCl2 (1.8 mM), NaH2PO4 (1.2 mM), MgCl2 (1.2 mM), D-glucose (10 mM), and HEPES (25 mM) in water, and adjusting the pH of the resultant solution to 7.4 by use of NaOH) and Fluo3-AM (product of Dainippon Pharmaceutical Co., Ltd.), which is a calcium-sensitive fluorescent dye, were added to the cultured epidermal keratinocytes (total amount of BSS and Fluo3-AM per well: […]), and incubation was carried out at 37° C. for 60 minutes, to thereby introduce the fluorescent dye into the cultured epidermal keratinocytes. […]
(§1) The fluorescence intensity was measured over time by means of a customary method by use of a fluorescence microplate reader (485 nm, 538 nm).
(§2) The concentration of intracellular calcium ions in the cells was calculated by use of the following formula. […]

[2] = target: T1, VR1 receptor (Homo sapiens, UniProt Q8NER1); assay: Intracellular calcium ion concentration in cultured epidermal keratinocytes (Fluo3-AM fluorescence), VR1 agonist/antagonist
T1 construct: epidermal keratinocytes were brought into contact with capsaicin, which is an agonist of a VR1 receptor; host or cells: cultured epidermal keratinocytes
Procedure: (§3) (a) Commercially available epidermal keratinocytes (product of Kurabo Industries Ltd.) were subjected to culture by means of a customary method by use of a KGM medium which had been prepared through the following procedure: MCDB153IK (product of Kyokuto Pharmaceutical Industrial Co., Ltd.) (10.93 g), N-2-hydroxyethylpiperazine-N′-2-ethanesulphonic acid (HEPES) (6.7 g), NaHCO3 (1.2 g), insulin (5 mg), hydrocortisone (0.5 mg), transferrin (10 mg), phosphorylethanolamine (14.1 mg), EGF (10 μg), penicillin (100 mg), and kanamycin (60 mg) were dissolved in purified water (1 L); the pH of the resultant solution was adjusted to 7.4 by use of NaOH; the resultant solution was subjected to filter sterilization; and bovine pituitary gland extract (product of Kyokuto Pharmaceutical Industrial Co., Ltd.) (55 mg) was added to the resultant solution immediately before use of the solution. On the day before measurement of calcium ions was carried out, the thus-cultured epidermal keratinocytes were inoculated into a 96-well plate (2×10^5 cells/well). […]
as §1, §2

[3] = test system: epidermal keratinocytes; assay: Intracellular calcium ion concentration in epidermal keratinocytes after adding pain-producing substances; conditions: lactic acid present (mM range), two seconds after addition of the solution; FIG. 4
Procedure: as §3, with “solution.” for “solution. On the day before measurement of calcium ions was carried out, the thus-cultured epidermal keratinocytes were inoculated into a 96-well plate (2×10^5 cells/well).”
as §1, §2
Fmin: Fluorescence intensity of Fluo3-AM when EDTA is added and Ca^2+ is blocked (minimum fluorescence intensity)
Fmax: Fluorescence intensity of Fluo3-AM in the presence of excess Ca^2+ (breakage of cell membranes by a surfactant) (maximum fluorescence intensity) […]

T1 sequence (Q8NER1 whole entry): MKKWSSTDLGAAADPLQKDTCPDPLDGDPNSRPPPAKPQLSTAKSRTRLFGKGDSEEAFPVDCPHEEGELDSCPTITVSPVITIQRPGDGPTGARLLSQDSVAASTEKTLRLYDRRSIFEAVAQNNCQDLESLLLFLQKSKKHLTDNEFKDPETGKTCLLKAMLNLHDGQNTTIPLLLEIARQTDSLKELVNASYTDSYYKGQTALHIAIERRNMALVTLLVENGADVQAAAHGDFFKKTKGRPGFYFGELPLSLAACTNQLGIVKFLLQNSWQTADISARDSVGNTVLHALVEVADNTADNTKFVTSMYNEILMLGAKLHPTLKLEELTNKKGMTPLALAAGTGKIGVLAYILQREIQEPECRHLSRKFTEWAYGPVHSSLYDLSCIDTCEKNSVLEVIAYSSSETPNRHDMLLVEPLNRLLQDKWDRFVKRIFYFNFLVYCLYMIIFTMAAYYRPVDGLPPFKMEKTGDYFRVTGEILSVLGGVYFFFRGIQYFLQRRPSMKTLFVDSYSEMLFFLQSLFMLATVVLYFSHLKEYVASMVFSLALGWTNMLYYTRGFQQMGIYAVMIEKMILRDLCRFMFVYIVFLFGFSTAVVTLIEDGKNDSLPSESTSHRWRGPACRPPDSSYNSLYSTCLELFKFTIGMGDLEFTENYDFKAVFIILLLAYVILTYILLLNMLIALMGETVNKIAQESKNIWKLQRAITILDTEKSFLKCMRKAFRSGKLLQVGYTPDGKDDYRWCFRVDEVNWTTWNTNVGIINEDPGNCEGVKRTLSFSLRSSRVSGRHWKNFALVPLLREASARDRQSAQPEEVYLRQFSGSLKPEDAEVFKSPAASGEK

Compound: CC(O)C(=O)O (stereo not drawn) [lactic acid]
concentration of intracellular calcium ions in the epidermal keratinocytes [3]: increased

Compound: 2′,3′-o-(2,4,6-trinitrophenyl)adenosine 5′-triphosphate [TNP-ATP]
increase in the concentration of intracellular calcium ions caused by αβ-me ATP ([1]; keratinocytes preliminarily treated with TNP-ATP (100 nM) for 10 minutes, then mixture of TNP-ATP and αβ-me ATP added): suppressed

Compound: Nc1ncnc2c1ncn2[C@@H]1O[C@H](COP(=O)(O)OP(=O)(O)OP(=O)(O)O)[C@@H](O)[C@H]1O [ATP, adenosine 5′-triphosphate]
concentration of intracellular calcium ions in the keratinocytes [1]: significantly increased

Results, then the compound that gave them:

concentration of intracellular calcium ions in the keratinocytes [1]: significantly increased
Compound: Nc1ncnc2c1ncn2[C@@H]1O[C@H](COP(=O)(O)CP(=O)(O)OP(=O)(O)O)[C@@H](O)[C@H]1O [αβ-me ATP, αβ-methelene ATP]

concentration of intracellular calcium ions in the keratinocytes ([2]; capsaicin solution (final concentration 100 nM to 10 μM) added to epidermal keratinocytes, FIG. 1A): significantly increased
Compound: COc1cc(CNC(=O)CCCC/C=C/C(C)C)ccc1O [capsaicin]

increase in the concentration of intracellular calcium ions caused by capsaicin ([2]; keratinocytes preliminarily treated with capsazepine for 10 minutes, then mixture of capsaicin and capsazepine added, FIG. 1B): suppressed
Compound: Oc1cc2c(cc1O)CN(C(=S)NCCc1ccc(Cl)cc1)CCC2 [capsazepine]
